Test results: patent EP1156056A1, “5-GLYCOSYLOXY-6-HYDROXYNAPHTHO 2,3-f]QUINOLINE-7,12-DIONE HAVING ANTICANCER ACTIVITIES” (ZAIDAN HOJIN BISEIBUTSU KAGAKU KENKYU KAI, priority 1999, dated 2000)
Converted amounts (≈) assume the structure as drawn. Like-named read-outs stand apart in the source and are kept apart here.

Tests used:
[1] = system: human cervical cancer (HeLa); test: Inhibition of proliferation of cancer cells in culture (Test Examples 1 and 3); assay type: cell-based
Method: (§1) A culture medium for cancer cells was put into test tubes. To the culture medium in each tube, there was transplanted each of such various mouse cancer cells or human cancer cells as shown in Table 1 below. The cells so transplanted were cultivated under the conditions at 37°C in an air atmosphere containing 5 % CO2. To the medium containing the cancer cells so cultivated, there was added said Compounds A, B, D, E or F of this invention at different concentrations, as the test compound. […] As the comparative compound, adriamycin now clinically used was tested to repeat the test in the same way.
(§2) Namely, they are mouse colon cancer (colon 26), mouse B-cell lymphoma (LB32T), mouse lymphoma (L-1210), human cervical cancer (HeLa), human acute promyeloleukemia (HL60), human prostatic cancer (PC3), human pudendal squamous cell carcinoma (A431), human pulmonary carcinoma (PC6), human mastocarcinoma (MCF7), human esophageal carcinoma (TT), human prostatic cancer (LNcap) and human colon cancer (DLD-1).
(§3) The test method and the nature of cancer cells to be tested are the same as those in Test Example 1 given hereinbefore. In this Test Example 3, however, eight kinds of cancer cells indicated in Table 3 below are used, among the twelve kinds of cancer cells which were used in Test Example 1.
(§4) As the test results of measurement, the evaluated values of the concentration of each test compound which could inhibit the proliferation of cancer cells by 50 % (namely, 50 % inhibitory concentration:IC50, µg/ml) are given in Table 3.

[2] = system: human prostatic cancer (PC3); test: as above; assay type: cell-based; conditions: for IC50: Homo sapiens; for anticancer activities against PC3, times higher than those of adriamycin: Test Example 1, relative to adriamycin
Method: as §1, §2, §3, §4

[3] = system: human prostatic cancer (LNcap); test: as above; assay type: cell-based
Method: as §1, §2, §3, §4

[4] = system: human acute promyeloleukemia (HL60); test: as above; assay type: cell-based
Method: as §1, §2, §3, §4

[5] = system: human colon cancer (DLD-1); test: as above; assay type: cell-based; conditions: for IC50: Homo sapiens; for anticancer activities against DLD-1, times higher than those of adriamycin: Test Example 1, relative to adriamycin
Method: as §1, §2, §3, §4

[6] = system: human pulmonary carcinoma (PC6); test: Inhibition of proliferation of cancer cells in culture (Test Example 1); assay type: cell-based; conditions: 72 hours cultivation, read-out: Concentration of test compound to inhibit the proliferation of cancer cells by 50 %
Method: as §1, §2

[7] = system: human esophageal carcinoma (TT); test: as above; assay type: cell-based; conditions: 72 hours cultivation, read-out: Concentration of test compound to inhibit the proliferation of cancer cells by 50 %
Method: as §1, §2

[8] = system: human mastocarcinoma (MCF7); test: as above; assay type: cell-based; conditions: 72 hours cultivation, read-out: Concentration of test compound to inhibit the proliferation of cancer cells by 50 %
Method: as §1, §2

[9] = system: human pudendal squamous cell carcinoma (A431); test: as above; assay type: cell-based; conditions: A-431, 72 hours cultivation, read-out: Concentration of test compound to inhibit the proliferation of cancer cells by 50 %
Method: as §1, §2

[10] = system: mouse B-cell lymphoma (LB32T); test: Inhibition of proliferation of cancer cells in culture (Test Examples 1 and 3); assay type: cell-based
Method: as §1, §2, §3, §4

mouse lymphoma (L-1210) = test: as above; assay type: cell-based
Method: as §1, §2, §3, §4

[11] = system: mouse colon cancer (colon 26); test: as above; assay type: cell-based
Method: as §1, §2, §3, §4

ICR mice = test: Acute toxicity in mice, survival after intraperitoneal administration (Test Example 2)
Method: In this Test Example, the acute toxicity of Compound A of this invention as administered to mice was evaluated. […] By way of comparison, similar test was carried out with adriamycin (in the form of hydrochloride) .

[12] = system: all human cancer cells as tested; test: Inhibition of proliferation of cancer cells in culture, all human cancer cells as tested; assay type: cell-based
Method: as §1
as §2, with “(DLD-1). […]” for “(DLD-1).”

[13] = 72 hours cultivation, Test Example 1, read-out: Concentration of test compound to inhibit the proliferation of cancer cells by 50 %, IC50
[14] = LNcap, 72 hours cultivation, Test Example 1, read-out: Concentration of test compound to inhibit the proliferation of cancer cells by 50 %, IC50
[15] = HL-60, 72 hours cultivation, Test Example 1, read-out: Concentration of test compound to inhibit the proliferation of cancer cells by 50 %, IC50
[16] = Test Example 3, Compounds N to T used as trifluoroacetate, read-out: IC50
[17] = L1210, 72 hours cultivation, Test Example 1, read-out: Concentration of test compound to inhibit the proliferation of cancer cells by 50 %, IC50
[18] = colon26, 72 hours cultivation, Test Example 1, read-out: Concentration of test compound to inhibit the proliferation of cancer cells by 50 %, IC50
[19] = ICR, mouse, in vivo, ip, 14 days

Row | SMILES | IC50 [1, 13] [µg/mL] | IC50 [2, 13] [µg/mL] | anticancer activities against PC3, times higher than those of adriamycin [2] [times] | IC50 [3, 14] [µg/mL] | IC50 [4, 15] [µg/mL] | IC50 [5, 13] [µg/mL] | anticancer activities against DLD-1, times higher than those of adriamycin [5] [times] | IC50 [6] [µg/mL] | IC50 [7] [µg/mL] | IC50 [8] [µg/mL] | IC50 [9] [µg/mL] | IC50 [10, 13] [µg/mL] | IC50 (mouse lymphoma (L-1210); [17]) [µg/mL] | IC50 [11, 18] [µg/mL] | also measured
1 | C[C@@H]1O[C@@H](Oc2c(O)c3c(c4cccnc24)C(=O)c2ccccc2C3=O)[C@H](F)[C@H](O)[C@H]1N [Compound F, 5-(4-amino-2,4,6-trideoxy-2-fluoro-α-L-mannopyranosyloxy)-6-hydroxynaphtho[2,3-f]quinoline-7,12-dione] | 0.34 (≈ 0.776 µM) | 0.35 (≈ 0.798 µM) | 2.6 | 0.67 (≈ 1.53 µM) | 0.11 (≈ 0.251 µM) | 0.17 (≈ 0.388 µM) | 11 | 2.92 (≈ 6.66 µM) | 3.48 (≈ 7.94 µM) | 2.46 (≈ 5.61 µM) | 2.25 (≈ 5.13 µM) |  |  |  | 
2 | COc1cccc2c1C(=O)c1c(O)c3c(c(O)c1C2=O)C[C@@](O)(C(=O)CO)C[C@@H]3O[C@H]1C[C@H](N)[C@H](O)[C@H](C)O1 [Adriamycin, reference compound] | 0.06 (≈ 0.11 µM) | 0.9 (≈ 1.66 µM) |  | 0.07 (≈ 0.129 µM) | 0.03 (≈ 0.0552 µM) | 1.9 (≈ 3.5 µM) |  | 1.01 (≈ 1.86 µM) | 1.38 (≈ 2.54 µM) | 1.02 (≈ 1.88 µM) | 1.33 (≈ 2.45 µM) | 0.03 (≈ 0.0552 µM) | 0.24 (≈ 0.442 µM) | 0.07 (≈ 0.129 µM) | IC50 [10, 16]: 0.04 µg/mL (≈ 0.0736 µM); IC50 (mouse lymphoma (L-1210); L1210, Test Example 3, Compounds N to T used as trifluoroacetate, read-out: IC50): 0.38 µg/mL (≈ 0.699 µM); IC50 [1, 16]: 0.06 µg/mL (≈ 0.11 µM); IC50 [2, 16]: 1.14 µg/mL (≈ 2.1 µM); IC50 ([3]; LNCap, Test Example 3, Compounds N to T used as trifluoroacetate, read-out: IC50): 0.1 µg/mL (≈ 0.184 µM); IC50 ([11]; Colon26, Test Example 3, Compounds N to T used as trifluoroacetate, read-out: IC50): 0.09 µg/mL (≈ 0.166 µM); IC50 ([4]; HL-60, Test Example 3, Compounds N to T used as trifluoroacetate, read-out: IC50): 0.03 µg/mL (≈ 0.0552 µM); IC50 [5, 16]: 3.4 µg/mL (≈ 6.26 µM); dosage at which the total number of mice survived for 14 days (ICR mice; ICR mice, intraperitoneal, 14 days): 0.125 mg/mouse; Survival day(s) of respective mice (ICR mice; ICR mice, intraperitoneal, dosage 0.125 mg/mouse, 4 mice per group, observed 14 days): >14 (all mice) day(s)
3 | C[C@@H]1O[C@H](Oc2c(O)c3c(c4cccnc24)C(=O)c2ccccc2C3=O)[C@@H](F)[C@H](O)[C@@H]1O [Compound E, 5-(2,6-dideoxy-2-fluoro-β-L-galactopyranosyloxy)-6-hydroxynaphtho[2,3-f]quinoline-7,12-dione] | 0.16 (≈ 0.364 µM) | 0.08 (≈ 0.182 µM) | 11 | 0.1 (≈ 0.228 µM) | 0.33 (≈ 0.751 µM) | 0.04 (≈ 0.091 µM) |  | 1.08 (≈ 2.46 µM) | 1.12 (≈ 2.55 µM) | 1.26 (≈ 2.87 µM) | 1.11 (≈ 2.53 µM) | 0.26 (≈ 0.592 µM) | 0.54 (≈ 1.23 µM) | 0.23 (≈ 0.523 µM) | 
4 | C[C@@H]1O[C@@H](Oc2c(O)c3c(c4cccnc24)C(=O)c2ccccc2C3=O)[C@H](F)[C@H](O)[C@@H]1O [Compound A, 5-(2,6-dideoxy-2-fluoro-α-L-talopyranosyloxy)-6-hydroxynaphtho[2,3-f]quinoline-7,12-dione] | 0.46 (≈ 1.05 µM) | 0.16 (≈ 0.364 µM) | 5.6 | 0.28 (≈ 0.637 µM) | 0.36 (≈ 0.819 µM) | 0.12 (≈ 0.273 µM) | 16 | 4.34 (≈ 9.88 µM) | 3.16 (≈ 7.19 µM) | 2.23 (≈ 5.08 µM) | 3.36 (≈ 7.65 µM) | 0.43 (≈ 0.979 µM) | 0.59 (≈ 1.34 µM) | 0.32 (≈ 0.728 µM) | Survival day(s) of respective mice (ICR mice; [19]): >14 (all mice) day(s); dosage at which the total number of mice survived for 14 days (ICR mice; [19]): 4 mg/mouse
5 | CO[C@H]1[C@H](Oc2c(O)c3c(c4cccnc24)C(=O)c2ccccc2C3=O)O[C@@H](C)[C@@H](O)[C@H]1O [Compound B, 5-(6-deoxy-2-O-methyl-α-L-talopyranosyloxy)-6-hydroxynaphtho[2,3-f]quinoline-7,12-dione] | 1.65 (≈ 3.66 µM) | 1.59 (≈ 3.52 µM) |  | 1.54 (≈ 3.41 µM) | 1.51 (≈ 3.34 µM) | 1.13 (≈ 2.5 µM) | 1.7 | 4.15 (≈ 9.19 µM) | 3.46 (≈ 7.66 µM) | 2.59 (≈ 5.74 µM) | 3.33 (≈ 7.38 µM) |  |  |  | 
6 | C[C@@H]1O[C@@H](Oc2c(O)c3c(c4cccnc24)C(=O)c2ccccc2C3=O)[C@@H](F)[C@H](O)[C@@H]1O [Compound D, 5-(2,6-dideoxy-2-fluoro-α-L-galactopyranosyloxy)-6-hydroxynaphtho[2,3-f]quinoline-7,12-dione] | 0.45 (≈ 1.02 µM) | 0.11 (≈ 0.25 µM) | 8.2 | 0.31 (≈ 0.706 µM) | 0.35 (≈ 0.797 µM) | 0.12 (≈ 0.273 µM) | 16 | 1.06 (≈ 2.41 µM) | 1.18 (≈ 2.69 µM) | 1.24 (≈ 2.82 µM) | 1.26 (≈ 2.87 µM) | 0.3 (≈ 0.683 µM) | 0.47 (≈ 1.07 µM) | 0.2 (≈ 0.455 µM) | 
7 | COc1c2c(c3cccnc3c1O[C@@H]1O[C@@H](C)[C@@H](O)[C@@H](O)[C@H]1F)C(=O)c1ccccc1C2=O [5-(2,6-dideoxy-2-fluoro-α-L-talopyranosyloxy)-6-methoxy-naphtho[2,3-f]-quinoline-7,12-dione] |  |  |  |  |  |  |  |  |  |  |  |  |  |  | IC50 [12]: < 100 µg/mL; anticancer activity [12]: does not exhibit any appreciable anticancer activity
